According to US6645965B1, “Nitrate salts of antihypertensive medicines” (priority 1998, dated 2003):

Tests used:
[1] = system: muscular contraction produced by Angiotensin II (isolated ileum); test: Contraction of isolated guinea pig ileum produced by Angiotensin II; conditions: Angiotensin II 10 mcg/ml, compound 10^−6M, Carrier = 100
Source text: In the second experiment (contraction produced by Angiotensin II), the method described by P. C. Wong et al., Hypertension, 13, 489-497, 1989 has been followed.

[2] = system: arterial hypertension induced by L-NAME; test: Arterial hypertension induced by L-NAME, systemic arterial pressure by caudal way; format: in vivo, rat; conditions: Carrier 170 ± 7
Description: The inhibiting effect of Losartan nitrate on the arterial hypertension has been assayed by using two experimental models: the arterial hypertension induced by L-NAME (see the preceding example) and the muscular contraction produced by Angiotensin II. In the first experiment Wistar adult male rats (235-284 g) received for 6 weeks drinking water containing L-NAME. at a 60-70 mg/100 ml concentration, equivalent to a daily dose of about 60 mg/Kg. […] One hour after the last treatment, the systemic arterial pressure was determined by caudal way, as described by Zatz, Lab. Anim. Sci., 42, 198, 1990. […] In the second experiment the method described by Taylor (see Example 10) has been followed as described before. The prostatic part of the isolated deferent duct of rats (200-220 g) was removed and dipped in a physiologic solution at 37° C. and then contracted by transmural stimulation (95% of the maximum stimulation, 0.2 Hz).

[3] = Diuretic effect in rats (urine volume over 6 hours); format: in vivo, rat; conditions: 10 mg/Kg subcutaneously, urine volume over 6 hours as percentage of carrier group
Description: In the latter experiment the diuretic effect was studied according to the method described by W. L. Lipschwitz et al. J. Pharmacol. Exp. Ther., 79, 97-110, 1943. No 3 groups of 6 rats (200-220 g) each, stalled in metabolic cages received drinking distilled water (25 ml/Kg p.o.). Each group was then subcutaneously injected with Amiloride nitrate (10 mg/Kg), Amiloride (10 mg/Kg) or carrier respectively. The urine volume was collected during a period of 6 hours following drug administration, measured in ml. The diuretic effect is expressed as percentage of the collected urine volume calculated on that of the group treated with the carrier.

[4] = system: prostatic part of the isolated deferent duct contracted by transmural stimulation; test: Vascular contraction of isolated rat deferent duct induced by electric stimulation; conditions: compound 10^−6 M, within 5 minutes, Carrier = 100
Source text: The inhibiting effect of Minoxidil nitrate on the arterial hypertension has been determined by using two experimental models: the arterial hypertension induced by L-NAME (see Example 10) and the vascular contraction induced by electric stimulation. In the first pharmacological experiment the rats have been treated as described in the pharmacological experiment with L-NAME of Example 11. In the second experiment the method described by Taylor (see Example 10) has been followed as described before. The prostatic part of the isolated deferent duct of rats (200-220 g) was removed and dipped in a physiologic solution at 37° C. and then contracted by transmural stimulation (95% of the maximum stimulation, 0.2 Hz).
The vasorelaxing activity is expressed as the reduction of the contractive neurogenic response, determined within 5 minutes from the. addition of the tested compound at a 10^−6 M concentration.

[5] = system: bronchoconstriction induced in guinea pigs by the Capsaicin injection; test: Experimental bronchoconstriction induced by Capsaicin injection (tidal air variation, Konzett apparatus); format: in vivo, guinea pig
Description: The compounds at a dose of 10 mg/kg and the corresponding carrier have been administered to the guinea pigs (groups of 6 animals each) by intraperitoneal route for three consecutive days. The animals were prepared according to the method of Del Soldato et al. J. Pharmacol. Methods 5 279 1981. 45 minutes later 0.1 ml of a Capsaicin saline solution (1 μg/Kg) was injected to the animals intravenously. The tidal air variation before and after the Capsaicin administration was measured by a Konzett apparatus, modified as described in the above mentioned reference, connected to a polygraphic system. The effects of the compounds and of their corresponding nitrate salts on the experimental bronchoconstriction induced in guinea pigs by the Capsaicin injection are reported in Table 1.

[6] = system: left atrium specimens stimulated by Isoprenaline; test: Inotropic-positive effect caused by Isoprenaline in guinea pig left atrium (beta-adrenolytic activity); conditions: Isoprenaline 10 mcg/ml, compound 10^−6M, Carrier = 100
Description: In the latter experiment the method described by Grodzinski et al., Arch. Int. Phramacodyn., 191, 133-141, 1971 was followed. The left atrium specimens taken from guinea pigs (300-350 g) were maintained at 32° C. in a physiologic solution wherein the concentration of calcium ion was ⅓ lower and stimulated by Isoprenaline (10 mcg/ml). The beta-adrenolitic activity is expressed as the reduction of the inotropic-positive effect (increase of the cardiac muscle contraction) following addition of the compound under examination at a 10^−6M concentration.

[7] = system: ileal contraction caused by calcium chloride; test: Ileal contraction caused by calcium chloride (calcium antagonist activity); conditions: guinea pig ileum, calcium chloride 20 mcg/ml, compound 10^−6 M; Carrier = 100
Description: In the latter, the experimental model adapted was that of the ileal contraction caused by calcium chloride, according to the method described by M. J. Spedding, J. Pharmacology 83, 211-220, 1984. Ileus segments taken from guinea pig (300-350 g) were maintained at 37° C. in a physiologic solution not containing calcium ions and then stimulated by calcium chloride addition (final concentration 20 mcg/ml). The calcium antagonist activity was determined as the reduction of the ileal contraction following addition of each of the test compounds at a concentration 10^−6 M.

gastric tissue = test: Gastric toxicity in rats given ethanol 50% by os (gastric lesions); format: in vivo; conditions: Sprague-Dawley male rats (n=10), 10 mg/Kg i.p. as free base, ethanol 50% by os 30 minutes later; Controls 50
Description: 5 groups of Sprague-Dawley male rats (n=10), were fasted for 24 hours. 4 groups were then respectively treated i.p. with Sildenafil, Zaprinast, and the relevant nitrate salts of said drugs. One group was not treated and was tha control group. 30 minutes later 1 ml of ethanol 50% in water was given by os to the animals.
One hour later the animals were sacrificed. The stomach was removed and the gastric tissue was macroscopically examined.
The results are reported in Table X. In the Table the gastric toxicity given as % incidence is the number of rats in a group showing gastric lesions.

[8] = system: isolated human cavernous tissue; test: Relaxation of isolated human cavernous tissue strips precontracted with adrenaline; conditions: 10^−6 M; adrenaline 3.10^−6 M
Source text: (§1) The relaxation effect of the cavernous artery and of the human cavernosum corpora (vasodilating effect at a peripheric level) was also studied. It was used the technique described by R. G. Hempelmann et al., European Journal of Pharmacology 276, 277-280 (1995), employing erectile tissues coming from patients submitted to surgical operation. The cavernous arteries have been isolated and cleaned up from the surrounding connective tissue. Segments of about 2 mm length were obtained and were mounted in a myograph equipment.
(§2) After having drawn an experimental curve diameter/tension, the specimens have been adjusted to a diameter corresponding to 90% of the one reached in the presence of a transluminal pressure of 100 mm Hg; after a stabilization period of about 60 minutes, contraction was effected by adrenaline 3.10^−6 M. After 15 minutes a dose corresponding to 10^−6 M of each of the tested compounds was added and the relaxation percentage was recorded.
A second series of experiments has been carried out according to the same protocol, on the isolated strips, 3×3×5 mm, of cavernous tissue, isometrically suspended in baths for isolated organs, under a 5-10 mN tension.

[9] = system: isolated human cavernous artery; test: Relaxation of isolated human cavernous artery pre-contracted with adrenaline; conditions: 10^−6 M; adrenaline 3.10^−6 M
Source text: as §1, §2

[10] = system: prostatic part of the deferent vessel contracted by transmural stimulation; test: Prostatic deferent vessel constriction induced by submaximum electric stimulation, rats treated with L-NAME; parameters: species or system rat; conditions: 10 mg/kg s.c. daily for five days, tested substance 10^−6 M, within 5 minutes, Carrier = 100
Description: The compounds have been administered in physiological solution. The control group has been treated with the carrier (physiologic solution) only. The vaso-relaxing activity of Sildenafil nitrate was determined by using the experimental model of the prostatic deferent vessels constriction, induced by submaximum electric stimulation (D. A. Taylor et al., J. Pharmacol. Exp. Ther. 224, 40-45 1983), in rats treated with N^w-nitro-L-arginine methyl ester (L-NAME) as described by Ribeiro et al., Hypertension, 20, 298, 1992. […] […] One hour after the last treatment,. the animals were sacrificed and the prostatic part of the deferent vessel was removed, dipped in a physiologic solution at 37° C., and contracted by transmural stimulation (95% of the maximum stimulation, 0.2 Hz). The reduction of the neurogenic contractive response, which results within 5 minutes from the addition of the tested substance at a concentration of 10^−6 M, is taken as a measure of the vasorelaxing activity.

[11] = Table V, L-NAME rats, 10 mg/kg s.c. daily for five days, one hour after last treatment
[12] = Table VI, L-NAME rats treated as in Example 11
[13] = Table VII, L-NAME rats, model of Example 11
[14] = Table VIII, L-NAME rats, model of Example 11
[15] = guinea pigs, 10 mg/kg intraperitoneal for three consecutive days, Capsaicin 1 μg/Kg i.v., Carrier = 100

Losartan nitrate [Losartan.HNO3]
Effect on the contraction of the smooth musculature % (n = 5) [1]: 12% | Average arterial pressure (mm Hg) [2, 11]: 115 ± 4 mm Hg

Amiloride Nitrate Salt [Amiloride.HNO3]
Average arterial pressure (mm Hg) ([2]; Table IX, L-NAME rats, model of Example 11): 110 ± 5 mm Hg | Diuretic effect % (n = 5) [3]: 215%

Minoxidil nitrate [Minoxidil.HNO3]
Average arterial pressure (mm Hg) [2, 12]: 110 ± 6 mm Hg | Effect on the vasoconstriction % (n = 5) [4]: 5%

CCCCc1nc(Cl)c(CO)n1Cc1ccc(-c2ccccc2-c2nn[nH]n2)cc1 [Losartan, reference compound]
Effect on the contraction of the smooth musculature % (n = 5) [1]: 33% | Average arterial pressure (mm Hg) [2, 11]: 153 ± 5 mm Hg

Timolol nitrate salt [Timolol.HNO3]
Bronchoconstrictive effect (%) ([5]; guinea pig, in vivo, 10 mg/kg): 94% | Inotropic positive effect % (n = 5) [6]: 13% | Average arterial pressure (mm Hg) [2, 13]: 108 ± 8 mm Hg

Nicardipine Nitrate Salt [Nicardipine.HNO3]
Contracturing effect % (n = 5) [7]: 8% | Average arterial pressure (mm Hg) [2, 14]: 108 ± 3 mm Hg

Propranolol nitrate salt [Propranolol.HNO3]
Bronchoconstrictive effect (%) [5, 15]: 110%

Nc1cc(N2CCCCC2)nc(N)[n+]1[O-] [Minoxidil, 6-(1-piperidiny-1)-2,4-pyrimidinediamine 3-oxide, reference compound]
Average arterial pressure (mm Hg) [2, 12]: 132 ± 6 mm Hg | Effect on the vasoconstriction % (n = 5) [4]: 18%

Zaprinast Nitrate [Zaprinast.HNO3]
Gastric toxicity (% incidence) (gastric tissue): 30 % incidence

[NH-]c1c[n+](N2CCOCC2)no1 [SIN-1]
Relaxing effect on the isolated human cavernous tissue precontracted with adrenaline (n = 4) (relaxation %) [8]: 33 ± 4% | Relaxing effect on the isolated human cavernous artery pre-contracted with adrenaline (n = 5) (relaxation %) [9]: 36 ± 7%

CCCc1nn(C)c2c(=O)[nH]c(-c3cc(S(=O)(=O)N4CCN(C)CC4)ccc3OCC)nc12 [Sildenafil]
Relaxing effect on the isolated human cavernous tissue precontracted with adrenaline (n = 4) (relaxation %) [8]: 42 ± 6% | Effect on vasoconstriction (%) [10]: 68% | Relaxing effect on the isolated human cavernous artery pre-contracted with adrenaline (n = 5) (relaxation %) [9]: 25 ± 4%

Sildenafil Nitrate Salt [Sildenafil.HNO3]
Relaxing effect on the isolated human cavernous tissue precontracted with adrenaline (n = 4) (relaxation %) [8]: 68 ± 7% | Effect on vasoconstriction (%) [10]: 25% | Relaxing effect on the isolated human cavernous artery pre-contracted with adrenaline (n = 5) (relaxation %) [9]: 61 ± 3%

CC(C)(C)NC[C@H](O)COc1nsnc1N1CCOCC1 [Timolol, reference compound]
Bronchoconstrictive effect (%) [5, 15]: 188% | Inotropic positive effect % (n = 5) [6]: 32% | Average arterial pressure (mm Hg) [2, 13]: 144 ± 5 mm Hg

CC(C)NCC(O)COc1cccc2ccccc12 (stereo not shown) [Propranolol, reference compound]
Bronchoconstrictive effect (%) [5, 15]: 280%

COC(=O)C1=C(C)NC(C)=C(C(=O)OCCN(C)Cc2ccccc2)C1c1cccc([N+](=O)[O-])c1 (stereo not shown) [Nicardipine, 1,4-dihydro-2,6-dimethyl-4-(3-nitrophenyl)-3,5-pyridinedicarboxylic acid methyl 2[methyl-(phenylmethyl)amino]ethyl ester, reference compound]
Contracturing effect % (n = 5) [7]: 25% | Average arterial pressure (mm Hg) [2, 14]: 122 ± 6 mm Hg
